Columns and labels:
DLD-1 = test: Antiproliferative activity against human DLD1 cells assessed as reduction in cell viability; type: functional, cell-based
LoVo = test: Antiproliferative activity against human LoVo cells assessed as reduction in cell viability; type: functional, cell-based
MCF7 [1] = test: Antiproliferative activity against human MCF7 cells assessed as reduction in cell viability; type: functional, cell-based
MDA-MB-231 = test: Antiproliferative activity against human MDA-MB-231 cells assessed as reduction in cell viability; type: functional, cell-based
SK-MEL-2 = test: Antiproliferative activity against human SK-MEL-2 cells assessed as reduction in cell viability incubated for 24 hrs by SRB assay; type: functional, cell-based; conditions: SK-MEL-2, 24 h
A549 [2] = test: Antiproliferative activity against human A549 cells assessed as reduction in cell viability incubated for 24 hrs by SRB assay; type: functional, cell-based; conditions: A549, 24 h
MCF7 [3] = test: Antiproliferative activity against human MCF7 cells assessed as reduction in cell viability incubated for 24 hrs by SRB assay; type: functional, cell-based; conditions: MCF7, 24 h
SK-OV-3 = test: Antiproliferative activity against human SKOV3 cells assessed as reduction in cell viability incubated for 24 hrs by SRB assay; type: functional, cell-based; conditions: SK-OV-3, 24 h
HCT-15 = test: Antiproliferative activity against human HCT15 cells assessed as reduction in cell viability incubated for 24 hrs by SRB assay; type: functional, cell-based; conditions: HCT-15, 24 h
COLO 205 = test: Antiproliferative activity against human COLO205 cells assessed as reduction in cell viability incubated for 48 hrs by MTT assay; type: functional, cell-based; conditions: COLO 205, 48 h
HCT-116 = test: Antiproliferative activity against human HCT116 cells assessed as reduction in cell viability incubated for 48 hrs by MTT assay; type: functional, cell-based; conditions: HCT-116, 48 h
[4] = target: ATP-dependent translocase ABCB1 (Homo sapiens, UniProt P08183); test: Induction of P-gp in human LS180 cells assessed as […] in intracellular accumulation of Rh123 at 100 nM using Rho123 as substrate preincubated for 48 hrs followed by addition of Rh123 and measured after 90 mins by fluorescence based assay relative to control; type: cell-based; conditions: ls180, 48 h preincubation, then 1.5 h with Rh123, 0.1 µM
ATP-dependent translocase ABCB1, sequence (P08183 whole entry): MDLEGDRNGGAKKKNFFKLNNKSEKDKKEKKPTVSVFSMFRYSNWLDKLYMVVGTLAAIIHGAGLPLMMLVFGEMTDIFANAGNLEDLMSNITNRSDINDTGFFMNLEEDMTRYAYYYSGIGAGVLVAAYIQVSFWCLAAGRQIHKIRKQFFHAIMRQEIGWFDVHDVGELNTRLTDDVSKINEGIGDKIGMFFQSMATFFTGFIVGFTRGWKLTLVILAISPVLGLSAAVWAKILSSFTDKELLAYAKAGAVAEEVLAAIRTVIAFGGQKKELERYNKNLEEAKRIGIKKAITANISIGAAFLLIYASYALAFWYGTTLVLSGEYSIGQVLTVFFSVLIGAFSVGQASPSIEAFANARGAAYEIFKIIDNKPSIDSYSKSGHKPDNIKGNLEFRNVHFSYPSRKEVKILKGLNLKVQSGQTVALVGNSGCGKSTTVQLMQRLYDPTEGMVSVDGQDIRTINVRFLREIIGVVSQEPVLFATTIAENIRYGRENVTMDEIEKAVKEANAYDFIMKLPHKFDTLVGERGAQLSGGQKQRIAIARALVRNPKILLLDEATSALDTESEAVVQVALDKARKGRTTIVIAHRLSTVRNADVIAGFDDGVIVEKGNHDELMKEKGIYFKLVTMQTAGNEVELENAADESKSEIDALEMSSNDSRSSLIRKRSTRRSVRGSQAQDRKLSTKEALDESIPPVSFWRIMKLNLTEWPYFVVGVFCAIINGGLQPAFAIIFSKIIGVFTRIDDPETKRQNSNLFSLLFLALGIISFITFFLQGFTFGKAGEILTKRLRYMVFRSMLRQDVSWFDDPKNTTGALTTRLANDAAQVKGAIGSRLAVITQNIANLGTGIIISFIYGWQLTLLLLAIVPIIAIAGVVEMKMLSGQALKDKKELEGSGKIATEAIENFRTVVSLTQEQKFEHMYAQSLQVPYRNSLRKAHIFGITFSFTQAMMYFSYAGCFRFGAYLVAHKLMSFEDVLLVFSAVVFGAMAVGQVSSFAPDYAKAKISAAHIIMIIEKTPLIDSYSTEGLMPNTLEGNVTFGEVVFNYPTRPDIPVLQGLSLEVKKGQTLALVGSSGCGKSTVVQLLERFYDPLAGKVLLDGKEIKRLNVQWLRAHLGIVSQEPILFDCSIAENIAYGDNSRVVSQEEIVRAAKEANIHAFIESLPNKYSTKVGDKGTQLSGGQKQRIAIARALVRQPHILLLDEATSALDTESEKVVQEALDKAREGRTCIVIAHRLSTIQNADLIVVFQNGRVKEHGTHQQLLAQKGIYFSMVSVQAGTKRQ

A2780 = test: Antiproliferative activity against human A2780 cells assessed as reduction in cell viability by MTT assay; type: functional, cell-based
A549 [5] = test: Antiproliferative activity against human A549 cells assessed as reduction in cell viability by MTT assay; type: functional, cell-based
Bel-7402 = test: Antiproliferative activity against human Bel7402 cells assessed as reduction in cell viability by MTT assay; type: functional, cell-based
MCF7 [6] = test: Antiproliferative activity against human MCF7 cells assessed as reduction in cell viability by MTT assay; type: functional, cell-based

Structure (SMILES)	IC50 (A549 [2])	IC50 (HCT-15)	IC50 (COLO 205)	IC50 (HCT-116)	Activity [4]	also measured
CCCCSc1ccc2c(cc1=O)[C@@H](NC(C)=O)CCc1cc(OC)c(OC)c(OC)c1-2						IC50 (DLD-1): 317 nM; IC50 (LoVo): 438 nM; IC50 (MCF7 [1]): 874 nM; IC50 (MDA-MB-231): 1770 nM
COc1cc(/C=C/C(=O)N[C@H]2CCc3cc(OC)c(OC)c(OC)c3-c3ccc(SC)c(=O)cc32)ccc1O	5.8 nM	10.8 nM				IC50 (SK-MEL-2): 16.6 nM; IC50 (MCF7 [3]): 5.6 nM; IC50 (SK-OV-3): 24.8 nM
COc1cc2c(c(OC)c1OC)-c1ccc(Nc3ccc(F)c(Cl)c3)c(=O)cc1[C@@H](NC(C)=O)CC2			500 nM	700 nM	90.05%	
COc1cc2c(c(OC)c1OC)-c1ccc(N3CCNCC3)c(=O)cc1[C@@H](NC(C)=O)CC2			8000 nM	> 10000 nM	95.52%	
COc1cc2c(c(OC)c1OC)-c1ccc(SC)c(=O)cc1[C@@H](NC(=O)Cc1ccccc1Nc1c(Cl)cccc1Cl)CC2	520 nM	306 nM				IC50 (SK-MEL-2): 1050 nM; IC50 (MCF7 [3]): 296 nM; IC50 (SK-OV-3): 1500 nM
COc1cc2c(c(OC)c1OC)-c1ccc(N3CCCCC3)c(=O)cc1[C@@H](NC(C)=O)CC2			1800 nM	3000 nM	119.01%	
CNc1ccc2c(cc1=O)[C@@H](NC(=O)CCC(=O)OCCCCO[N+](=O)[O-])CCc1cc(OC)c(OC)c(OC)c1-2						IC50 (A2780): 10 nM; IC50 (A549 [5]): 12 nM; IC50 (Bel-7402): 13 nM; IC50 (MCF7 [6]): 8 nM
CNc1ccc2c(cc1=O)[C@@H](NC(=O)CCC(=O)OCCO[N+](=O)[O-])CCc1cc(OC)c(OC)c(OC)c1-2						IC50 (A2780): 104 nM; IC50 (A549 [5]): 106 nM; IC50 (Bel-7402): 202 nM; IC50 (MCF7 [6]): 103 nM
COc1cc2c(c(OC)c1OC)-c1ccc(N3CCC(c4ccccc4)CC3)c(=O)cc1[C@@H](NC(C)=O)CC2			800 nM	1000 nM	101.03%	
CNc1ccc2c(cc1=O)[C@@H](NC(=O)CCC(=O)OCCCCCCO[N+](=O)[O-])CCc1cc(OC)c(OC)c(OC)c1-2						IC50 (A2780): 109 nM; IC50 (A549 [5]): 205 nM; IC50 (Bel-7402): 86 nM; IC50 (MCF7 [6]): 95 nM
COc1cc2c(c(OC)c1OC)-c1ccc(N3CCC(N)CC3)c(=O)cc1[C@@H](NC(C)=O)CC2			5000 nM	10000 nM	102.04%	
COc1cc2c(c(OC)c1OC)-c1ccc(OC)c(=O)cc1[C@@H](NC(C)=O)CC2 [COLCHICINE]	21 nM	9 nM		50 nM	62.91%	IC50 (SK-MEL-2): 6 nM; IC50 (MCF7 [3]): > 300 nM; IC50 (SK-OV-3): 18 nM; IC50 (MDA-MB-231): 25.3 nM
COc1cc2c(c(OC)c1OC)-c1ccc(N3CCN(C(=O)OC(C)(C)C)CC3)c(=O)cc1[C@@H](NC(C)=O)CC2			3000 nM	4000 nM	90.94%	
COc1cc2c(c(OC)c1OC)-c1ccc(N3CCC[C@@H]3CO)c(=O)cc1[C@@H](NC(C)=O)CC2			8000 nM	10000 nM	86.53%	
COc1cc2c(c(OC)c1OC)-c1ccc(SC)c(=O)cc1[C@@H](NC(=O)CC[C@H](NC(=O)c1ccc(NCc3cnc4nc(N)nc(O)c4n3)cc1)C(=O)O)CC2	4960 nM	1160 nM				IC50 (MCF7 [3]): 697 nM
COc1cc2c(c(OC)c1OC)-c1ccc(N3CCCC3)c(=O)cc1[C@@H](NC(C)=O)CC2			240 nM	300 nM	107.12%	
CNc1ccc2c(cc1=O)[C@@H](NC(=O)CCC(=O)OC/C=C/CO[N+](=O)[O-])CCc1cc(OC)c(OC)c(OC)c1-2						IC50 (A2780): 205 nM; IC50 (A549 [5]): 135 nM; IC50 (Bel-7402): 120 nM; IC50 (MCF7 [6]): 202 nM

Structure (SMILES)	IC50 (A549 [2])	IC50 (HCT-15)	IC50 (COLO 205)	IC50 (HCT-116)	Activity [4]	also measured
COc1cc2c(c(OC)c1OC)-c1ccc(=N)c(O)cc1[C@@H](NC(C)=O)CC2			120 nM	150 nM	107.41%	
COc1cc2c(c(OC)c1OC)-c1ccc(SC)c(=O)cc1[C@@H](NC(=O)[C@H](O)[C@@H](O)[C@H](O)[C@H](O)CO)CC2	14.2 nM	18.7 nM				IC50 (SK-MEL-2): 12.3 nM; IC50 (MCF7 [3]): 7.8 nM; IC50 (SK-OV-3): 29.8 nM
CC/C=C\C/C=C\C/C=C\C/C=C\C/C=C\C/C=C\CCC(=O)N[C@H]1CCc2cc(OC)c(OC)c(OC)c2-c2ccc(SC)c(=O)cc21	917 nM	392 nM				IC50 (SK-MEL-2): 2000 nM; IC50 (MCF7 [3]): 494 nM; IC50 (SK-OV-3): 2630 nM
CCN(CC)c1ccc2c(cc1=O)[C@@H](NC(C)=O)CCc1cc(OC)c(OC)c(OC)c1-2			430 nM	800 nM	95.38%	
CCOC(=O)C1CCN(c2ccc3c(cc2=O)[C@@H](NC(C)=O)CCc2cc(OC)c(OC)c(OC)c2-3)CC1			8000 nM	> 10000 nM	95.49%	
CNc1ccc2c(cc1=O)[C@@H](NC(=O)CCC(=O)OCCCCCO[N+](=O)[O-])CCc1cc(OC)c(OC)c(OC)c1-2						IC50 (A2780): 96 nM; IC50 (A549 [5]): 86 nM; IC50 (Bel-7402): 85 nM; IC50 (MCF7 [6]): 100 nM
COc1cccc2c1C(=O)c1c(O)c3c(c(O)c1C2=O)C[C@@](O)(C(=O)CO)C[C@@H]3O[C@H]1C[C@H](N)[C@H](O)[C@H](C)O1 [DOXORUBICIN]	14.7 nM	16.4 nM				IC50 (DLD-1): 511 nM; IC50 (SK-MEL-2): 11.7 nM; IC50 (LoVo): 520 nM; IC50 (SK-OV-3): 34.2 nM; IC50 (MDA-MB-231): 936 nM
COc1cc2c(c(OC)c1OC)-c1ccc(N3CCOCC3)c(=O)cc1[C@@H](NC(C)=O)CC2			1200 nM	5000 nM	95.97%	
CCCCCCCCCCCCCC[C@H]1OC(C)(C)O[C@H]1[C@@H](NC(=O)OC(C)(C)C)C(=O)N[C@H]1CCc2cc(OC)c(OC)c(OC)c2-c2ccc(SC)c(=O)cc21	228 nM	204 nM				IC50 (SK-MEL-2): 130 nM; IC50 (MCF7 [3]): 303 nM; IC50 (SK-OV-3): 676 nM
COc1cc2c(c(OC)c1OC)-c1ccc(N3CCN(C)CC3)c(=O)cc1[C@@H](NC(C)=O)CC2			1000 nM	3000 nM	102.82%	
COc1cc2c(c(OC)c1OC)-c1ccc(N3CCC4c5ccccc5NC4C3)c(=O)cc1[C@@H](NC(C)=O)CC2 (some centres undefined)			800 nM	3000 nM	119.7%	
COc1cc2c(c(OC)c1OC)-c1ccc(SC)c(=O)cc1[C@@H](NC(=O)CCC1=C(C)c3cc4[nH]c(cc5nc(cc6[nH]c(cc1n3)c(CCC(=O)N[C@H]1CCc3cc(OC)c(OC)c(OC)c3-c3ccc(SC)c(=O)cc31)c6C)C(C(C)O)=C5C)c(C(C)O)c4C)CC2 (some centres undefined)	1680 nM	4840 nM				IC50 (SK-MEL-2): 2840 nM; IC50 (MCF7 [3]): 3220 nM; IC50 (SK-OV-3): 2860 nM
C=C(C)[C@@H]1CC=C(C(=O)N[C@H]2CCc3cc(OC)c(OC)c(OC)c3-c3ccc(SC)c(=O)cc32)CC1	7.5 nM	8.1 nM				IC50 (SK-MEL-2): 17.9 nM; IC50 (MCF7 [3]): 5.2 nM; IC50 (SK-OV-3): 17.2 nM
COc1cc2c(c(OC)c1OC)-c1ccc(Nc3ccc(Cl)c(C(F)(F)F)c3)c(=O)cc1[C@@H](NC(C)=O)CC2			30 nM	40 nM	90.29%	
CNc1ccc2c(cc1=O)[C@@H](NC(=O)CCC(=O)OCCCO[N+](=O)[O-])CCc1cc(OC)c(OC)c(OC)c1-2						IC50 (A2780): 99 nM; IC50 (A549 [5]): 88 nM; IC50 (Bel-7402): 85 nM; IC50 (MCF7 [6]): 135 nM
COc1cc2c(c(OC)c1OC)-c1ccc(Nc3ccc4c(c3)OCO4)c(=O)cc1[C@@H](NC(C)=O)CC2			3000 nM	4000 nM	102.66%	
